In one series the test system is OVCAR5 cells. Description: Cell viability and synergy with cisplatin. It counts as cell-based. As to conditions: at 1 μM and 10 μM, 72 h.
The test system of a further series is PEO1 cells. Description: Cell viability and synergy with cisplatin. It counts as cell-based. As to conditions: at 1 μM and 10 μM, 72 h.

Regarding `O=c1c2cn(C3COC3)nc2nc(SCc2cccc(F)c2)n1-c1ccccc1` [Compound 13g, 6-((3-Fluorobenzyl)thio)-2-(oxetan-3-yl)-5-phenyl-2H-pyrazolo[3,4-d]pyrimidin-4(5H)-one], the “Cytotoxicity of compound alone, OVCAR5” value in the series with OVCAR5 cells is recorded as “did not show cytotoxicity”. Further, the “Cytotoxicity of compound alone, PEO1” value with PEO1 cells is “did not show cytotoxicity”.

As to `O=c1c2cnn(C3COC3)c2nc(SCc2cccc(F)c2)n1-c1ccccc1` [Compound 12g, 6-((3-Fluorobenzyl)thio)-1-(oxetan-3-yl)-5-phenyl-1H-pyrazolo[3,4-d]pyrimidin-4(5H)-one], the “Cytotoxicity of compound alone, OVCAR5” value in the series on OVCAR5 cells is reported as “did not show cytotoxicity”. In addition, the “Cytotoxicity of compound alone, PEO1” value in the series with PEO1 cells was “did not show cytotoxicity”.

(Values after PMC6477540 (Journal of medicinal chemistry, 2018).)
